PubChem BioAssay AID2060895 (Molecular Pharmacology Branch, DTP, NCI, 2025)

Test system: PDC 899932-113-R3-J6 complex spheroid viability
Assay: Anticancer human tumor 899932-113-R3-J6-PDC patient-derived melanoma cell line growth inhibition [RAS]
Details: for IC50: curve of first compound; for viability, T/C: stronger effect = lower value
How it was run: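 Agents were tested in combination matrices in half-log decrements from a top concentration at or near clinical Cmax (10 microM if undetermined). Targets were multi-cell spheroids of tumour lines plus HUVEC and MSC stromal cells.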

[1] = second compound 0.00316 µM, first compound 0.0316 µM
[2] = second compound 0.00316 µM, first compound 0.1 µM
[3] = second compound 0.00316 µM, first compound 0.316 µM
[4] = second compound 0.00316 µM, first compound 1 µM
[5] = second compound 0.00316 µM, first compound 3.16 µM
[6] = second compound 0.00316 µM, first compound 10 µM
[7] = second compound 0.01 µM, first compound 0.0316 µM
[8] = second compound 0.01 µM, first compound 0.1 µM
[9] = second compound 0.01 µM, first compound 0.316 µM
[10] = second compound 0.01 µM, first compound 1 µM
[11] = second compound 0.01 µM, first compound 3.16 µM
[12] = second compound 0.01 µM, first compound 10 µM
[13] = second compound 0.0316 µM, first compound 0.0316 µM
[14] = second compound 0.0316 µM, first compound 0.1 µM
[15] = second compound 0.0316 µM, first compound 0.316 µM
[16] = second compound 0.0316 µM, first compound 1 µM
[17] = second compound 0.0316 µM, first compound 3.16 µM
[18] = second compound 0.0316 µM, first compound 10 µM
[19] = second compound 0.1 µM, first compound 0.0316 µM
[20] = second compound 0.1 µM, first compound 0.1 µM
[21] = second compound 0.1 µM, first compound 0.316 µM
[22] = second compound 0.1 µM, first compound 1 µM
[23] = second compound 0.1 µM, first compound 3.16 µM
[24] = second compound 0.1 µM, first compound 10 µM
[25] = second compound 0.316 µM, first compound 0.0316 µM
[26] = second compound 0.316 µM, first compound 0.1 µM
[27] = second compound 0.316 µM, first compound 0.316 µM
[28] = second compound 0.316 µM, first compound 1 µM
[29] = second compound 0.316 µM, first compound 3.16 µM
[30] = second compound 0.316 µM, first compound 10 µM
[31] = second compound 1 µM, first compound 0.0316 µM
[32] = second compound 1 µM, first compound 0.1 µM
[33] = second compound 1 µM, first compound 0.316 µM
[34] = second compound 1 µM, first compound 1 µM
[35] = second compound 1 µM, first compound 3.16 µM
[36] = second compound 1 µM, first compound 10 µM
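Wherever viability, T/C is given: spheroids exposed to agents for seven days before readout; 100% = DMSO vehicle control wells.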

CC(Nc1ccc2c(c1)OCCn1cc(N3C(=O)OCC3C(F)F)nc1-2)C(N)=O (stereo unspecified) + C=CC(=O)N1CCN(c2nc(OCC3CCCN3C)nc3c(F)c(-c4nc(N)cc(C)c4C(F)(F)F)c(Cl)cc23)C(C)C1
IC50 (second compound 0.00316 µM): 1670 nM
IC50 (second compound 0.01 µM): 2010 nM
IC50 (second compound 0.0316 µM): 2910 nM
IC50 (second compound 0.1 µM): 2330 nM
IC50 (second compound 0.316 µM): 1640 nM
IC50 (second compound 1 µM): 1510 nM
viability, T/C [1]: 97%
viability, T/C [2]: 72.4%
viability, T/C [3]: 69.6%
viability, T/C [4]: 55.6%
viability, T/C [5]: 43%
viability, T/C [6]: 36.7%
viability, T/C [7]: 81.4%
viability, T/C [8]: 75.8%
viability, T/C [9]: 65.6%
viability, T/C [10]: 55.8%
viability, T/C [11]: 47.5%
viability, T/C [12]: 32.8%
viability, T/C [13]: 90.3%
viability, T/C [14]: 75.8%
viability, T/C [15]: 70.1%
viability, T/C [16]: 59.9%
viability, T/C [17]: 49.7%
viability, T/C [18]: 38.9%
viability, T/C [19]: 88.2%
viability, T/C [20]: 77.2%
viability, T/C [21]: 69.1%
viability, T/C [22]: 55.6%
viability, T/C [23]: 48.3%
viability, T/C [24]: 38.6%
viability, T/C [25]: 82.3%
viability, T/C [26]: 75.9%
viability, T/C [27]: 68.5%
viability, T/C [28]: 51.9%
viability, T/C [29]: 46.5%
viability, T/C [30]: 38.6%
viability, T/C [31]: 95.5%
viability, T/C [32]: 81.2%
viability, T/C [33]: 61.4%
viability, T/C [34]: 53.2%
viability, T/C [35]: 48.7%
viability, T/C [36]: 32%

C[C@@H](NC(=O)c1ncnc(N)c1Cl)c1ncc(C(=O)Nc2cc(C(F)(F)F)c(Cl)cn2)s1 + C=CC(=O)N1CCN(c2nc(OCC3CCCN3C)nc3c(F)c(-c4nc(N)cc(C)c4C(F)(F)F)c(Cl)cc23)C(C)C1
IC50 (second compound 0.00316 µM): 6950 nM
IC50 (second compound 0.01 µM): 7010 nM
IC50 (second compound 0.0316 µM): 7260 nM
IC50 (second compound 0.1 µM): 7390 nM
IC50 (second compound 0.316 µM): 7410 nM
IC50 (second compound 1 µM): 7600 nM
viability, T/C [1]: 131%
viability, T/C [2]: 152%
viability, T/C [3]: 169%
viability, T/C [4]: 164%
viability, T/C [5]: 103%
viability, T/C [6]: 25.8%
viability, T/C [7]: 140%
viability, T/C [8]: 153%
viability, T/C [9]: 153%
viability, T/C [10]: 154%
viability, T/C [11]: 106%
viability, T/C [12]: 25%
viability, T/C [13]: 121%
viability, T/C [14]: 143%
viability, T/C [15]: 157%
viability, T/C [16]: 154%
viability, T/C [17]: 104%
viability, T/C [18]: 29.1%
viability, T/C [19]: 142%
viability, T/C [20]: 152%
viability, T/C [21]: 153%
viability, T/C [22]: 160%
viability, T/C [23]: 115%
viability, T/C [24]: 26.9%
viability, T/C [25]: 136%
viability, T/C [26]: 136%
viability, T/C [27]: 168%
viability, T/C [28]: 161%
viability, T/C [29]: 108%
viability, T/C [30]: 29.3%
viability, T/C [31]: 124%
viability, T/C [32]: 144%
viability, T/C [33]: 149%
viability, T/C [34]: 151%
viability, T/C [35]: 114%
viability, T/C [36]: 29.9%

O=C(c1ccc(F)c(F)c1Nc1ccc(I)cc1F)N1CC(O)([C@@H]2CCCCN2)C1 + C=CC(=O)N1CCN(c2nc(OCC3CCCN3C)nc3c(F)c(-c4nc(N)cc(C)c4C(F)(F)F)c(Cl)cc23)C(C)C1
IC50 (second compound 0.00316 µM): 5.71 nM
IC50 (second compound 0.01 µM): 6.26 nM
IC50 (second compound 0.0316 µM): 6.75 nM
IC50 (second compound 0.1 µM): 8.47 nM
IC50 (second compound 0.316 µM): 7.95 nM
IC50 (second compound 1 µM): 8.43 nM
viability, T/C (second compound 0.00316 µM, first compound 0.00316 µM): 71.1%
viability, T/C (second compound 0.00316 µM, first compound 0.01 µM): 30%
viability, T/C [1]: 6.25%
viability, T/C [2]: 3.24%
viability, T/C [3]: 1.5%
viability, T/C [4]: 0.84%
viability, T/C (second compound 0.01 µM, first compound 0.00316 µM): 74.8%
viability, T/C (second compound 0.01 µM, first compound 0.01 µM): 33%
viability, T/C [7]: 5.84%
viability, T/C [8]: 2.5%
viability, T/C [9]: 1.9%
viability, T/C [10]: 0.68%
viability, T/C (second compound 0.0316 µM, first compound 0.00316 µM): 81.8%
viability, T/C (second compound 0.0316 µM, first compound 0.01 µM): 33.5%
viability, T/C [13]: 7.48%
viability, T/C [14]: 2.48%
viability, T/C [15]: 1.88%
viability, T/C [16]: 0.72%
viability, T/C (second compound 0.1 µM, first compound 0.00316 µM): 73.9%
viability, T/C (second compound 0.1 µM, first compound 0.01 µM): 46%
viability, T/C [19]: 7.56%
viability, T/C [20]: 2.66%
viability, T/C [21]: 1.89%
viability, T/C [22]: 1.02%
viability, T/C (second compound 0.316 µM, first compound 0.00316 µM): 74.5%
viability, T/C (second compound 0.316 µM, first compound 0.01 µM): 43.9%
viability, T/C [25]: 9.69%
viability, T/C [26]: 2.51%
viability, T/C [27]: 1.92%
viability, T/C [28]: 0.96%
viability, T/C (second compound 1 µM, first compound 0.00316 µM): 72.8%
viability, T/C (second compound 1 µM, first compound 0.01 µM): 46%
viability, T/C [31]: 7.46%
viability, T/C [32]: 3.39%
viability, T/C [33]: 1.9%
viability, T/C [34]: 1.15%
